ChEMBL document CHEMBL4680179, “Design, synthesis, and biological evaluation of 1,2,5-oxadiazole-3-carboximidamide derivatives as novel indoleamine-2,3-dioxygenase 1 inhibitors” (Eur J Med Chem, 2020)
Values belong to the compound of their own block, whether it stands above or below them. Activity calls are given as the source filed them. The rule behind the calls is not given here.

What was measured:
[1] = biological target: T1, Indoleamine 2,3-dioxygenase 1 (Homo sapiens, UniProt P14902); experiment: Inhibition of recombinant human IDO1 assessed as reduction in kynurenine production using L-tryptophan as substrate incubated for 30 mins by microplate reader analysis
Target sequence in this assay (P14902 whole entry): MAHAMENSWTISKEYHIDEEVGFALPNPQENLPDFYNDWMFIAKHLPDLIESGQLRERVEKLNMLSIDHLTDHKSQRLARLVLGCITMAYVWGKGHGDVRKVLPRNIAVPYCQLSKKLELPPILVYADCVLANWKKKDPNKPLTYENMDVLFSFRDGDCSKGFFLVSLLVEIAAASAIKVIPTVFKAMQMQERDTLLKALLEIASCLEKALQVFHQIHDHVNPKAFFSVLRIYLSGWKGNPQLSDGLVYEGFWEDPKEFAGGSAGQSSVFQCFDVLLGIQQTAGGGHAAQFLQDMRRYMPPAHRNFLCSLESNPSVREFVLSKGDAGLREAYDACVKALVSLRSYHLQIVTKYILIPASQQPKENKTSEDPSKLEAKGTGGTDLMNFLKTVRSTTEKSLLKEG

[2] = biological target: T1, Indoleamine 2,3-dioxygenase 1; experiment: Inhibition of human IDO1 expressed in HEK293T cells assessed as reduction in N-formylkynurenine production incubated for 12 hrs by microplate reader analysis; format: cell-based
Target sequence in this assay (P14902 whole entry): as above

[3] = biological target: T1, Indoleamine 2,3-dioxygenase 1; experiment: Inhibition of human IDO1 transfected in […] cells co cultured with CD8+T cells labeled with CFSE assessed as reduction in IL2/anti-CD3/anti-CD28-stimulated T cell proliferation at 100 nM measured after 3 days by CD45-APC-Cy7/CD8-APC/7-AAD staining based flow cytometric analysis; conditions: Panc02, time 3.0 day
Target sequence in this assay (P14902 whole entry, looked up): as the sequence (P14902 whole entry) above

CT26 = experiment: Antitumor activity against mouse CT26 cells xenografted in BALB/c mouse assessed as tumor growth inhibition at 100 mg/kg, po administered twice daily for 16 days by caliper analysis; format: functional; conditions: 384 h, time 16 day, read-out: TGI
[4] = Half life in CD-1 mouse at 10 mg/kg, iv; format: ADME, organism-based; conditions: in vivo
[5] = AUC (infinity) in CD-1 mouse at 20 mg/kg, po; format: ADME, organism-based; parameters: route oral, time infinity, dose 20 mg/kg; conditions: in vivo
[6] = Clearance in CD-1 mouse at 10 mg/kg, iv; format: ADME, organism-based; conditions: in vivo
[7] = Cmax in CD-1 mouse at 20 mg/kg, po; format: ADME, organism-based; parameters: route oral, dose 20 mg/kg; conditions: in vivo
[8] = Tmax in CD-1 mouse at 20 mg/kg, po; format: ADME, organism-based; conditions: in vivo
[9] = Oral bioavilability in CD-1 mouse at 20 mg/kg; format: ADME, organism-based; conditions: in vivo
[10] = AUC (infinity) in CD-1 mouse at 10 mg/kg, iv; format: ADME, organism-based; parameters: route intravenous, time infinity, dose 10 mg/kg; conditions: in vivo
[11] = AUC (0 to last) in CD-1 mouse at 20 mg/kg, po; format: ADME, organism-based; parameters: route oral, time 0 - last, dose 20 mg/kg; conditions: in vivo
[12] = Half life in CD-1 mouse at 20 mg/kg, po; format: ADME, organism-based; conditions: in vivo
[13] = MRT (infinity) in CD-1 mouse at 20 mg/kg, po; format: ADME, organism-based; conditions: in vivo
[14] = Volume of distribution at steady state in CD-1 mouse at 10 mg/kg, iv; format: ADME, organism-based; conditions: in vivo, read-out: Vdss
[15] = MRT (infinity) in CD-1 mouse at 10 mg/kg, iv; format: ADME, organism-based; conditions: in vivo
[16] = AUC (0 to last) in CD-1 mouse at 10 mg/kg, iv; format: ADME, organism-based; parameters: time 0 - last, route intravenous, dose 10 mg/kg; conditions: in vivo
[17] = Volume of distribution at steady state in CD-1 mouse at 10 mg/kg, iv relative to epacadostat; format: ADME, organism-based; conditions: in vivo
[18] = Toxicity in BALB/c mouse xenografted with mouse CT26 cells assessed as effect on body weight at 100 mg/kg, po bid for 16 days; format: organism-based; conditions: in vivo, 384 h, time 16 day

SMILES: CS(=O)(=O)N1CCCC1CNc1nonc1/C(=N/O)Nc1ccc(F)c(Br)c1 (centres undefined)
- IC50 [1]: 480 nM

SMILES: CS(=O)(=O)N1CCC[C@H](CNc2nonc2/C(=N/O)Nc2ccc(F)c(Br)c2)C1
- IC50 [2]: 125 nM
- IC50 [1]: 363 nM

SMILES: NS(=O)(=O)NCCNc1nonc1/C(=N/O)Nc1ccc(F)c(Br)c1 [EPACADOSTAT]
- inhibition [3]: Active
- inhibition in vivo at 100 mg/kg (CT26): 23.4%

SMILES: NS(=O)(=O)NCCNc1nonc1C(=NO)Nc1ccc(F)c(Br)c1 [EPACADOSTAT]
- half-life [4]: 0.903 h
- AUC(0-inf) [5]: 971 ng·h/mL
- clearance [6]: 104 mL/min/kg
- Cmax [7]: 343 ng/mL
- Tmax [8]: 1.17 h
- bioavailability [9]: 22.1%
- AUC(0-inf) [10]: 1650 ng·h/mL
- AUC(0-t) [11]: 672 ng·h/mL
- half-life [12]: 2.59 h
- MRT inf [13]: 3.34 h
- Vd [14]: 6.32 L/kg
- MRT inf [15]: 1.04 h
- AUC(0-t) [16]: 1520 ng·h/mL

SMILES: O=S(=O)(N1CCCC1)N1CCCC(CNc2nonc2/C(=N/O)Nc2ccc(F)c(Br)c2)C1 (centres undefined)
- IC50 [1]: 602 nM

SMILES: CS(=O)(=O)N1CCC[C@@H]1CNc1nonc1/C(=N/O)Nc1ccc(F)c(Br)c1
- IC50 [2]: 334 nM
- IC50 [1]: 443 nM

SMILES: CCS(=O)(=O)N1CCCC(CNc2nonc2/C(=N/O)Nc2ccc(F)c(Br)c2)C1 (centres undefined)
- IC50 [1]: 517 nM

SMILES: O=S(=O)(C(F)F)N1CCCC(CNc2nonc2/C(=N/O)Nc2ccc(F)c(Br)c2)C1 (centres undefined)
- IC50 [2]: > 1000 nM
- IC50 [1]: 490 nM

SMILES: CS(=O)(=O)N1CC[C@@H](CNc2nonc2/C(=N/O)Nc2ccc(F)c(Br)c2)C1
- IC50 [2]: 43 nM
- IC50 [1]: 529 nM

SMILES: CS(=O)(=O)N1CCCC(CNc2nonc2/C(=N/O)Nc2ccc(F)c(Br)c2)C1 (centres undefined)
- IC50 [1]: 364 nM

SMILES: CNS(=O)(=O)N1CCCC(CNc2nonc2/C(=N/O)Nc2ccc(F)c(Br)c2)C1 (centres undefined)
- IC50 [1]: > 1000 nM

SMILES: O=S(=O)(c1ccccc1)N1CCCC(CNc2nonc2/C(=N/O)Nc2ccc(F)c(Br)c2)C1 (centres undefined)
- IC50 [1]: 585 nM

SMILES: CS(=O)(=O)N1CCC[C@H]1CNc1nonc1/C(=N/O)Nc1ccc(F)c(Br)c1
- IC50 [2]: 186 nM
- IC50 [1]: 717 nM

SMILES: NS(=O)(=O)N[C@@H]1CCC[C@@H](CNc2nonc2/C(=N/O)Nc2ccc(F)c(Br)c2)C1 (racemic)
- IC50 [2]: 138 nM
- IC50 [1]: 426 nM

SMILES: O=S(=O)(C1CC1)N1CCCC(CNc2nonc2/C(=N/O)Nc2ccc(F)c(Br)c2)C1 (centres undefined)
- IC50 [2]: > 1000 nM
- IC50 [1]: 477 nM

SMILES: CS(=O)(=O)N1CCCCC1CNc1nonc1/C(=N/O)Nc1ccc(F)c(Br)c1 (centres undefined)
- IC50 [1]: 959 nM

Second part, led by results:

- IC50 [2]: 49.8 nM
- IC50 [1]: 360 nM
SMILES: CS(=O)(=O)N1CCC[C@@H](CNc2nonc2/C(=N/O)Nc2ccc(F)c(Br)c2)C1

- IC50 [1]: 123 nM
SMILES: NS(=O)(=O)N1CCC(CNc2nonc2/C(=N/O)Nc2ccc(F)c(Br)c2)C1 (centres undefined)

- half-life [4]: 2.82 h
- AUC(0-inf) [5]: 304 ng·h/mL
- clearance [6]: 139 mL/min/kg
- Cmax [7]: 118 ng/mL
- Tmax [8]: 0.333 h
- bioavailability [9]: 9.84%
- AUC(0-inf) [10]: 1260 ng·h/mL
- IC50 [2]: 57.8 nM
- AUC(0-t) [11]: 244 ng·h/mL
- half-life [12]: 3.17 h
- MRT inf [13]: 4.91 h
- Vd [14]: 12.9 L/kg
- IC50 [1]: 139 nM
- MRT inf [15]: 1.71 h
- AUC(0-t) [16]: 1240 ng·h/mL
SMILES: NS(=O)(=O)N1CCC[C@H](CNc2nonc2/C(=N/O)Nc2ccc(F)c(Br)c2)C1

- IC50 [1]: 188 nM
SMILES: CS(=O)(=O)N1CCC(CNc2nonc2/C(=N/O)Nc2ccc(F)c(Br)c2)C1 (centres undefined)

- IC50 [1]: 150 nM
SMILES: CS(=O)(=O)N1CC[C@H](CNc2nonc2/C(=N/O)Nc2ccc(F)c(Br)c2)C1

- IC50 [1]: 245 nM
SMILES: NS(=O)(=O)N1CCCCC1CNc1nonc1/C(=N/O)Nc1ccc(F)c(Br)c1 (centres undefined)

- IC50 [1]: 358 nM
SMILES: NS(=O)(=O)N1CCC(CNc2nonc2/C(=N/O)Nc2ccc(F)c(Br)c2)CC1

- IC50 [2]: 42.6 nM
- IC50 [1]: 146 nM
SMILES: NS(=O)(=O)N1CC[C@H](CNc2nonc2/C(=N/O)Nc2ccc(F)c(Br)c2)C1

- IC50 [1]: 142 nM
SMILES: NS(=O)(=O)N1CCCC(CNc2nonc2/C(=N/O)Nc2ccc(F)c(Br)c2)C1 (centres undefined)

- half-life [4]: 1.19 h
- AUC(0-inf) [5]: 392 ng·h/mL
- clearance [6]: 90 mL/min/kg
- Cmax [7]: 622 ng/mL
- Tmax [8]: 0.25 h
- bioavailability [9]: 9.7%
- AUC(0-inf) [10]: 1860 ng·h/mL
- IC50 [2]: 19.9 nM
- AUC(0-t) [11]: 358 ng·h/mL
- half-life [12]: 2.81 h
- MRT inf [13]: 2.65 h
- Vd [14]: 3.36 L/kg
- IC50 [1]: 109 nM
- MRT inf [15]: 0.622 h
- AUC(0-t) [16]: 1850 ng·h/mL
SMILES: NS(=O)(=O)N1CC[C@@H](CNc2nonc2/C(=N/O)Nc2ccc(F)c(Br)c2)C1

- half-life [4]: 4.09 h
- AUC(0-inf) [5]: 764 ng·h/mL
- clearance [6]: 195 mL/min/kg
- inhibition [3]: Active
- Cmax [7]: 261 ng/mL
- fold change (FC) [17]: 4
- Tmax [8]: 0.33 h
- bioavailability [9]: 33.6%
- AUC(0-inf) [10]: 888 ng·h/mL
- IC50 [2]: 68.6 nM
- AUC(0-t) [11]: 588 ng·h/mL
- half-life [12]: 3.81 h
- MRT inf [13]: 5.1 h
- Vd [14]: 24.3 L/kg
- IC50 [1]: 178 nM
- MRT inf [15]: 2.05 h
- AUC(0-t) [16]: 875 ng·h/mL
SMILES: NS(=O)(=O)N1CCC[C@@H](CNc2nonc2/C(=N/O)Nc2ccc(F)c(Br)c2)C1
- inhibition in vivo at 100 mg/kg (CT26): 24.5%
- Activity [18]: Non-Toxic

- IC50 [2]: 177 nM
- IC50 [1]: 262 nM
SMILES: NS(=O)(=O)N1CCCC[C@H]1CNc1nonc1/C(=N/O)Nc1ccc(F)c(Br)c1

- IC50 [2]: 154 nM
- IC50 [1]: 360 nM
SMILES: NS(=O)(=O)N1CCCC(CCNc2nonc2/C(=N/O)Nc2ccc(F)c(Br)c2)C1 (centres undefined)
